Experimental data reported in patent publication US10041937B2, “Macrophage identification agent, and identification method, sorting method, evaluation method, screening method and kit using the macrophage identifier agent” (CANON KABUSHIKI KAISHA, priority 2013, dated 2018).

Test system: M1 macrophages and M2 macrophages differentiated from mouse bone marrow cells
Experiment: Subtype identification by staining and flow cytometry of M1 and M2 macrophages differentiated from mouse bone marrow cells
Assay type: cell-based, Balb/c mouse
Conditions: for subtype more strongly stained: two compounds used in combination, each 1 μM
Experimental: The culture of subtypes was performed according to a protocol described in NPL 7. Specifically, bone marrow cells collected from the femur of a Balb/c mouse of 8 to 10 weeks old were dispersed to a concentration of 1×10^6/mL in an IMDM containing 20% FBS and 1% P/S, and 1×10^7 cells were seeded in a 100 mm dish. After further adding an M-CSF (manufactured by Pepro Tech) thereto to a concentration of 50 ng/mL, the cells were incubated for 3 to 4 days in the presence of 5% CO2 at 37° C., so as to differentiate macrophage precursor cells to macrophages. After exchanging the medium, the M-CSF was added to a concentration of 50 ng/mL, and the incubation was performed for further 3 to 4 days in the presence of 5% CO2 at 37° C., and then, the resulting cells were differentiated to macrophage. By adding 200 ng of interferon-γ and 1 μg of […] (both manufactured by Pepro Tech) to the IMDM containing 5% FBS and 1% P/S, the cells were differentiated to the subtype M1. Besides, by adding 100 ng of IL-4 to the IMDM containing 5% FBS and 1% P/S, the cells were differentiated to the subtype M2. After performing the incubation for further 3 days in the presence of 5% CO2 at 37° C., the resultant was rinsed with PBS, and PBS containing 0.25% trypsin and 1 mM EDTA (ethylenediaminetetraacetic acid) was used for collecting, from the dish, the macrophages having been differentiated to the subtypes M1 and M2.
Thereafter, the tube was centrifuged at 180 G for 10 minutes to remove the supernatant, a dye for identifying dead cells (aqua fluorescent reactive dye, manufactured by Invitrogen; which is hereinafter sometimes abbreviated as aqua) was added thereto, and the resultant was incubated at 4° C. for 10 minutes. Subsequently, the tube was centrifuged at 180 G for 10 minutes to remove the supernatant, cells were suspended in a FACS buffer to be analyzed by using FACSCanto (trademark) II flow cytometry apparatus manufactured by BD.
The analysis was performed on a cell population showing a low signal for the aqua, so as to analyze a cell population from which dead cells were eliminated. […] A histogram was prepared by plotting fluorescence intensity obtained in the FITC channel on the abscissa and plotting the number of cells at each fluorescence intensity on the ordinate, which is shown in FIG. 2.
Histograms were prepared by plotting fluorescence intensities obtained in the respective channels on the abscissa and plotting the numbers of cells at each fluorescence intensity on the ordinate. A difference between a fluorescence intensity (FM1) at a peak top of the histogram of the M1 macrophage and a fluorescence intensity (FM2) at a peak top of the histogram of the M2 macrophage is divided by a sum of a peak width (WM1) of the histogram of the M1 macrophage and a peak width (WM2) of the histogram of the M2 macrophage, so as to obtain a resolution R, which was used as an index of the identification ability for a subtype (see the following expression (1)). Resolution R=|FM1−FM2|/(WM1+WM2) Expression (1)

[1] = M1 vs M2 macrophages from mouse bone marrow cells, general formula (10) dyes (Table 8)
[2] = class based on resolution R, general formula (10) dyes (Table 8)
[3] = mouse bone marrow-derived M1 macrophages, channel listed per compound, general formula (10) dyes (Table 8)
[4] = mouse bone marrow-derived M2 macrophages, channel listed per compound, general formula (10) dyes (Table 8)
[5] = R=|FM1−FM2|/(WM1+WM2), compound 1 μM
[6] = fluorescence intensity at peak top of histogram, compound 1 μM, 37° C., 30 minutes
[7] = M1 vs M2 macrophages from mouse bone marrow cells, general formula (6) dyes (Table 7)
[8] = class based on resolution R, general formula (6) dyes (Table 7)
[9] = mouse bone marrow-derived M1 macrophages, channel listed per compound, general formula (6) dyes (Table 7)
[10] = mouse bone marrow-derived M2 macrophages, channel listed per compound, general formula (6) dyes (Table 7)

Row | SMILES | Resolution ratio R [5] | Peak position of M1 macrophage [6] | Peak position of M2 macrophage [6] | Evaluation of macrophage subtype identification (rated from resolution R) | further results
1 | CCN(CC)c1ccc2cc(-c3nc4ccccc4[nH]3)c(=O)oc2c1 [(131)] | – | – | – | – | Resolution ratio R [1]: 0.480; Evaluation of macrophage subtype identification [2]: B (the compound is good in the subtype identification (namely, the resolution R is 0.15 or more and less than 0.5)); Peak position of M1 macrophage [3]: 8.06; Peak position of M2 macrophage [4]: 13.5
2 | O=C(O)CCN1C(=O)/C(=C\c2cc(Br)c3c(c2)C2CCCC2N3c2ccc(Br)cc2)SC1=S (stereo not shown) [(11)] | 0.544 | 30.5 | 16.2 | A (The compound is very good in the subtype identification (namely, the resolution R is 0.5 or more)) | –
3 | COc1ccc(N2c3ccc(/C=C4\C(=O)N(c5ccccc5)N=C4C(=O)O)cc3C3CCCC32)cc1 (stereo not shown) [compound (33)] | 0.522 | 5.00 | 9.05 | A (The compound is very good in the subtype identification (namely, the resolution R is 0.5 or more)) | subtype more strongly stained: the M2 macrophages are more strongly stained than the M1 macrophages
4 | Cc1cc(C)n2c1C=C1C=CC(CCC(=O)c3c(F)c(F)c(S(=O)(=O)O)c(F)c3F)=[N+]1[B-]2(F)F [(167)] | – | – | – | – | Resolution ratio R (M1 vs M2 macrophages from mouse bone marrow cells, general formula (11) dyes (Table 9)): 0.525; Evaluation of macrophage subtype identification (class based on resolution R, general formula (11) dyes (Table 9)): A (The compound is very good in the subtype identification (namely, the resolution R is 0.5 or more)); Peak position of M1 macrophage (mouse bone marrow-derived M1 macrophages, channel listed per compound, general formula (11) dyes (Table 9)): 14.5; Peak position of M2 macrophage (mouse bone marrow-derived M2 macrophages, channel listed per compound, general formula (11) dyes (Table 9)): 7.82
5 | CCCCCCCCN1C(=O)/C(=c2\s/c(=C/c3ccc4c(c3)C3CCCC3N4c3ccc(C=C(c4ccccc4)c4ccccc4)cc3)c(=O)n2CC(=O)O)SC1=S (stereo not shown) [(38)] | 0.724 | 3.74 | 1.63 | A (The compound is very good in the subtype identification (namely, the resolution R is 0.5 or more)) | –
6 | CCOC(=O)CN1C(=O)/C(=C\c2cc(Br)c3c(c2)C2CCCC2N3c2ccc(Br)cc2)SC1=S (stereo not shown) [(49)] | 0.486 | 3.26 | 5.02 | B (the compound is good in the subtype identification (namely, the resolution R is 0.15 or more and less than 0.5)) | –
7 | O=C(O)CCN1C(=O)/C(=C\c2ccc3c(c2)C2CCCC2N3c2ccc(C=C(c3ccccc3)c3ccccc3)cc2)SC1=S (stereo not shown) [(32)] | 0.476 | 88.7 | 155 | B (the compound is good in the subtype identification (namely, the resolution R is 0.15 or more and less than 0.5)) | –
8 | CCN1C(=O)S/C(=c2/s/c(=C/c3ccc4c(c3)C3CCCC3N4c3ccc(OC)cc3)c(=O)n2CC(=O)O)C1=O (stereo not shown) [(44)] | 0.330 | 24.5 | 12.9 | B (the compound is good in the subtype identification (namely, the resolution R is 0.15 or more and less than 0.5)) | –
9 | CCN(CC)c1ccc2cc(-c3nc4cc(Cl)ccc4s3)c(=O)oc2c1 [(122)] | – | – | – | – | Resolution ratio R [1]: 0.377; Evaluation of macrophage subtype identification [2]: B (the compound is good in the subtype identification (namely, the resolution R is 0.15 or more and less than 0.5)); Peak position of M1 macrophage [3]: 142; Peak position of M2 macrophage [4]: 211
10 | COC(=O)C(C)N1C(=O)/C(=C\c2ccc3c(c2)C2CCCC2N3c2ccc(OC)cc2)SC1=S (stereo not shown) [(7)] | 0.567 | 65.4 | 23.6 | A (The compound is very good in the subtype identification (namely, the resolution R is 0.5 or more)) | –
11 | CCOC(=O)CN1C(=O)/C(=C\c2ccc3c(c2)C2CCCC2N3c2ccccc2)SC1=S (stereo not shown) [(48)] | 0.621 | 65.4 | 9.74 | A (The compound is very good in the subtype identification (namely, the resolution R is 0.5 or more)) | –
12 | O=C(O)CN1C(=O)/C(=C\C=C\c2ccc3c(c2)C2CCCC2N3c2ccccc2)SC1=S (stereo not shown) [(85)] | 0.179 | 225 | 285 | B (the compound is good in the subtype identification (namely, the resolution R is 0.15 or more and less than 0.5)) | –
13 | CSc1cccc(N2c3ccc(/C=C4/SC(=S)N(CC(=O)O)C4=O)cc3C3CCCC32)c1 (stereo not shown) [(50)] | 1.025 | 3.24 | 0.99 | A (The compound is very good in the subtype identification (namely, the resolution R is 0.5 or more)) | –
14 | CCN1C(=C/C=C/c2n(CC)c3cc(Cl)c(Cl)cc3[n+]2CC)N(CC)c2cc(Cl)c(Cl)cc21 [compound (103)] | – | – | – | – | Resolution ratio R [7]: 0.597; Evaluation of macrophage subtype identification [8]: A (The compound is very good in the subtype identification (namely, the resolution R is 0.5 or more)); Peak position of M1 macrophage [9]: 2.97; Peak position of M2 macrophage [10]: 8.23; subtype more strongly stained: the M2 macrophage shows a higher fluorescence intensity in the PE-Cy7 channel than the M1 macrophage
15 | CCN(CC)c1ccc2cc(-c3nc4cc(C(=O)O)ccc4o3)c(=O)oc2c1 [(127)] | – | – | – | – | Resolution ratio R [1]: 0.381; Evaluation of macrophage subtype identification [2]: B (the compound is good in the subtype identification (namely, the resolution R is 0.15 or more and less than 0.5)); Peak position of M1 macrophage [3]: 3.99; Peak position of M2 macrophage [4]: 6.00
16 | CN1/C(=C\C=C\C2=[N+](C)c3ccccc3C2(C)C)C(C)(C)c2ccccc21 [(95)] | – | – | – | – | Resolution ratio R [7]: 0.421; Evaluation of macrophage subtype identification [8]: B (the compound is good in the subtype identification (namely, the resolution R is 0.15 or more and less than 0.5)); Peak position of M1 macrophage [9]: 71.57; Peak position of M2 macrophage [10]: 133.45
17 | CCN(CC)c1ccc2cc(-c3nc4ncccc4o3)c(=O)oc2c1 [compound (116)] | – | – | – | – | Resolution ratio R [1]: 0.772; Evaluation of macrophage subtype identification [2]: A (The compound is very good in the subtype identification (namely, the resolution R is 0.5 or more)); Peak position of M1 macrophage [3]: 4.91; Peak position of M2 macrophage [4]: 12.1; subtype more strongly stained: more strongly stain the M2 macrophages than the M1 macrophages
18 | CCN(CC)c1ccc2cc(-c3nc4ccccc4n3C)c(=O)oc2c1 [(119)] | – | – | – | – | Resolution ratio R [1]: 0.273; Evaluation of macrophage subtype identification [2]: B (the compound is good in the subtype identification (namely, the resolution R is 0.15 or more and less than 0.5)); Peak position of M1 macrophage [3]: 2.60; Peak position of M2 macrophage [4]: 3.94
19 | CCCN1c2ccc(/C=C3/SC(=S)N(CCC(=O)O)C3=O)cc2C2CCCC21 (stereo not shown) [(9)] | 0.828 | 2.63 | 6.69 | A (The compound is very good in the subtype identification (namely, the resolution R is 0.5 or more)) | –
